Measurements published in patent US10040838B2, “CRHR2 peptide agonists and uses thereof” (JANSSEN PHARMACEUTICA NV, priority 2008, dated 2018).
Several values for one entry are separate records, joined by “and”; a condition that tells them apart may be missing. Equal entries are not always repeated. Where two headings read alike, the source gives them in different places. No end group written: not given here.

Assays:
CRHR1 [1] = target: T1, CRHR1 (Homo sapiens, UniProt P34998); test: Radioligand binding CRHR1 assay, [125I]-(Tyr0)-sauvagine; design: expressed in transfected cells; host or cells: cell membranes; details: Table 15; slope of competition curve
T1 sequence (P34998 24-415): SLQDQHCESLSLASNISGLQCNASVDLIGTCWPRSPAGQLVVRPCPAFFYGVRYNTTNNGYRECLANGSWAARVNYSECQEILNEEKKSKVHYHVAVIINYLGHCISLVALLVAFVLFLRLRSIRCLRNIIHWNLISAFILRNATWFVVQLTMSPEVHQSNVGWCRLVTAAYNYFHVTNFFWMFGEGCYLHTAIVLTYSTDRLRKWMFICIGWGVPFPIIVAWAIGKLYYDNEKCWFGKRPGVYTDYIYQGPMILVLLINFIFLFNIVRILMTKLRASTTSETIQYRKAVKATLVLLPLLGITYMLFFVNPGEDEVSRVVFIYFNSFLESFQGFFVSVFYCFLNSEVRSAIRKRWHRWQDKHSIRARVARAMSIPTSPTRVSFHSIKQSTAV
Experimental: The solution was then homogenized with a Polytron tissue grinder at a setting of 10 and 7×3 s (Brinkmann Instruments, Westbury, N.Y.). The homogenate was centrifuged at 4° Celsius at 800×g for 5 min with the pellet being discarded. […] All binding assays were conducted in 96-well Multiscreen GF/B filter plates (Millipore, Billericay, Mass., U.S.A.) that were pre-soaked in assay buffer with 0.3% PEI for 1 hour. […] The bound radioactivity was separated by filtration using a Multiscreen Resist manifold (Millipore Corp., Billerica, Mass., U.S.A). The filters were washed three times with ice-cold PBS at pH 7.5 and radioactivity retained on the filters was quantified by its liquid scintillation measured by a TopCount counter (Packard BioScience, Boston, Mass., U.S.A). All experiments were performed in triplicate.

CRHR1 [2] = target: T1, CRHR1; test: cAMP assay in h-CRHR1 transfected SK-N-MC cells; format: cell-based; design: expressed in transfected cells; details: for Experimental nH: Table 11, Hill slope
Experimental: Human CRHR1 (accession number X72304) or CRHR2 (accession number U34587) were cloned into pcDNA3.1/Zeo expression vector and stably transfected into SK-N-MC cells by electroporation. Cells were maintained in MEM w/Earl's Salt with 10% FBS, 50 I.U. penicillin, 50 μg/ml streptomycin, 2 mM L-glutamine, 1 mM sodium pyruvate and 0.1 mM nonessential amino acids, 600 μg/ml G418. Cells were grown at 37° C. in 5% CO2.
Cells were plated in 96-well tissue culture dishes (Biocoat from BD Biosciences) overnight at 50,000 cell/well. Cells were washed with PBS then resuspended in DMEM F-12 without phenol red, containing 10 μM isobutylmethylxanthine (IBMX). Cells were incubated with the peptides at concentrations ranging from 1 pM to 10 μM for 60 min at 37° Celsius. […] Forskolin (10 μM), a direct stimulant of adenylate cyclase, was used as positive control. The assays were stopped by the addition of 0.5 M HCl and mixing by orbital rotation for 2 h at 4° Celsius.
Transfected SK-N-MC cells were plated in 96-well Biocoat tissue culture dishes (BD Biosciences, San Jose, Calif., U.S.A) overnight at 50,000 cell/well. […]
Individual agonist concentration-response curve data were fitted to the Hill equation, see formula below, using GraphPad Prism (Graphpad Software, La Jolla, Calif., U.S.A.), to provide estimates of agonist concentration needed to generate one-half maximal response (A50), and the maximal asymptote (α) and Hill slope (nH) parameters. In this equation, [A] is the agonist concentration and E is the measured effect:
For display purposes the mean fitted parameter estimates were used to generate a single E/[A] curve shown superimposed on the mean experimental data. Potency estimates for agonists, pA50, are expressed as the negative logarithm of the midpoint of each curve and listed with their standard error of measurement (SEM).
Human and rat peptides (see Table 10) were used on the stimulation of h-CRHR1 or h-CRHR2 transfected SK-N-MC cells in the cAMP flash plate assay. […] Curves were calculated using non-linear regression sigmoidal concentration-response analysis calculation in GraphPad Prism.

h-CRHR1 = target: T2, h-CRHR1 (Homo sapiens, UniProt P34998); details: h-CRHR1 transfected HEK-293 cells, approximated from concentration response curves, Hsu et al. 2001; cited from earlier work
T2 sequence (P34998 24-415): T1 sequence (P34998 24-415)

h-CRHR2b = target: T3, h-CRHR2b (Homo sapiens, UniProt Q13324); details: h-CRHR2b transfected HEK-293 cells, approximated from concentration response curves, Hsu et al. 2001; cited from earlier work
T3 sequence (Q13324 1-438 isoform Q13324-2): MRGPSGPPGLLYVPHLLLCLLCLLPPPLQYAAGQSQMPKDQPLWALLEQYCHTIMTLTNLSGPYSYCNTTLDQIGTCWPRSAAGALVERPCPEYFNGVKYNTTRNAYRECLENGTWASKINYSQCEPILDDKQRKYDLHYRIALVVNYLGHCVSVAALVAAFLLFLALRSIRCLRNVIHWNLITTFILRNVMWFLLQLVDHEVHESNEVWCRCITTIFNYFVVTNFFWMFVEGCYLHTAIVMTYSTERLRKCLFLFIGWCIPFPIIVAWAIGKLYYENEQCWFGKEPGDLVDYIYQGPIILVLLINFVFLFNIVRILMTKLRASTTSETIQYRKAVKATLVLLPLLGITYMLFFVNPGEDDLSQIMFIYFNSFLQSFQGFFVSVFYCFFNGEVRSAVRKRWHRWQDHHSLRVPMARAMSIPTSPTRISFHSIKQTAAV

[3] = tested on: Langendorff perfused rabbit heart; test: Retrograde-perfused Langendorff rabbit heart assay; details: bolus into the perfusion block
Experimental: The effect of h-SCP (SEQ ID NO:1) on heart rate (HR), left ventricular (LV) contraction, and vascular tone was assessed in a retrograde-perfused Langendorff rabbit heart assay.

Experimental nH (CRHR1 [2]) | Experimental αmax (CRHR1 [2]; Table 11, maximal asymptote) | Experimental nH (CRHR1 [2]; listed as h-SRP) | Molecule | CRHR1 nH (CRHR1 [1]) | Published pA50 (h-CRHR1) | Published pA50 (h-CRHR2b) | EC50 ([3]; read-out: concentration for 50% response, decrease in coronary perfusion pressure (CPP)) [µM] | EC50 ([3]; read-out: concentration for 50% response, increase in heart rate) [µM] | EC50 ([3]; read-out: concentration for 50% response, increase in left ventricular developed pressure (dP/dtmax)) [µM]
1.15 | 99.61 | – | CC[C@H](C)[C@H](NC(=O)[C@H](CO)NC(=O)[C@H](CC(C)C)NC(=O)[C@@H]1CCCN1C(=O)[C@@H]1CCCN1C(=O)[C@H](CC(=O)O)NC(=O)[C@@H](N)CC(=O)O)C(=O)N[C@@H](CC(=O)O)C(=O)N[C@@H](CC(C)C)C(=O)N[C@H](C(=O)N[C@@H](Cc1ccccc1)C(=O)N[C@@H](Cc1c[nH]cn1)C(=O)N[C@@H](CC(C)C)C(=O)N[C@@H](CC(C)C)C(=O)N[C@@H](CCCNC(=N)N)C(=O)N[C@H](C(=O)N[C@@H](CC(C)C)C(=O)N[C@@H](CC(C)C)C(=O)N[C@@H](CCC(=O)O)C(=O)N[C@@H](CC(C)C)C(=O)N[C@@H](C)C(=O)N[C@@H](CCCNC(=N)N)C(=O)N[C@H](C(=O)N[C@@H](CCC(N)=O)C(=O)N[C@@H](CO)C(=O)N[C@@H](CCC(N)=O)C(=O)N[C@@H](CCCNC(=N)N)C(=O)N[C@@H](CCC(=O)O)C(=O)N[C@@H](CCCNC(=N)N)C(=O)N[C@@H](C)C(=O)N[C@@H](CCC(=O)O)C(=O)N[C@@H](CCC(N)=O)C(=O)N[C@@H](CC(N)=O)C(=O)N[C@@H](CCCNC(=N)N)C(=O)N[C@H](C(=O)N[C@H](C(=O)N[C@@H](Cc1ccccc1)C(=O)N[C@@H](CC(=O)O)C(=O)N[C@@H](CO)C(=O)N[C@H](C(N)=O)C(C)C)[C@@H](C)CC)[C@@H](C)CC)[C@@H](C)O)[C@@H](C)O)[C@@H](C)O [SEQ ID NO: 114, DDPPLSIDLTFHLLRTLLELARTQSQRERAEQNRIIFDSV-NH2] | 0.91 ± 0.27 | – | – | – | – | –
– | – | 1.61 and 1.33 and 1.26 | HPGSRIVLSLDVPIGLLQILLEQARARAAREQATTNARILARV-NH2 [SEQ ID NO: 117, HPGSRIVLSLDVPIGLLQILLEQARAPAAREQATTNARILARV-NH2, reference compound] | – | >7^3 | ~9^4 | – | – | –
– | – | – | TKFTLSLDVPTNIMNLLFNIAKAKNLRAQAAANAHLMAQI-NH2 [SEQ ID NO: 1, TKFTLSLDVPTNIMNLLFNIAKAKNLRAQAAANAHLMAQI-NH2, reference compound] | 1.16 ± 0.65 | – | ~9^4 | 0.046 | 0.052 | 0.0099
